From patent publication US7705004B2, “Protein kinase inhibitors” (Portola Pharmaceuticals, Inc., priority 2007, dated 2010)

Columns and labels:
Assay type in all cases: cell-based
[1] = test system: human platelet-rich plasma (PRP); assay: Convulxin-induced aggregation assay (cuvette light transmittance); settings: 125-250 ng/mL Convulxin, read-out: IC50, inhibition of convulxin-induced aggregation of platelet rich plasma
Experimental: For preparation of human platelet-rich plasma (PRP) for aggregation assays, human venous blood was collected from healthy, drug-free volunteers into 0.38% sodium citrate (0.013 M, pH 7.0 final). PRP was prepared by centrifugation of whole blood at 160×g for 20 minutes at room temperature. The PRP layer was removed, transferred to a new tube, and the platelet count was adjusted, if necessary, to achieve a platelet concentration of ˜3×10^8 platelets/mL using platelet-poor plasma (PPP). PPP was prepared by centrifugation of the remaining blood sample (after removal of PRP) for 20 minutes at 800×g. This preparation of PRP may be subsequently used for aggregation assays in either a 96-well plate or standard cuvette aggregometry.
Inhibition of Convulxin-induced aggregation was determined by cuvette light transmittance aggregation assays. Serial dilutions (1:2) of test compounds were prepared in 30% DMSO in a 96-well V-bottom plate (final DMSO concentration in the cuvette was 0.3%). The test compound (5 μl of serial dilutions in DMSO) was preincubated with PRP for 20 minutes prior to initiation of the aggregation reactions, which were performed in a ChronoLog aggregometer by addition of agonist (125-250 ng/mL Convulxin) to 495 μL of PRP at 37° C. The aggregation reaction was recorded for 4 minutes, and the maximum extent of aggregation was determined by the difference in extent of aggregation at baseline, compared to the maximum aggregation that occurred during the 4 minute period of the assay. Inhibition of aggregation was calculated as the maximum aggregation observed in the presence of inhibitor, compared to that in the absence of inhibitor. IC50s were derived by non-linear regression analysis.

human washed platelets = assay: Inhibition of Convulxin-mediated platelet calcium mobilization in vitro; settings: 125 ng/mL Convulxin
Experimental: Inhibition of Convulxin-induced calcium mobilization was determined in human washed platelets using the FLIPR Calcium 3 Assay Kit (Molecular Devices, Sunnyvale, Calif.). For preparation of washed platelets, human venous blood was collected from healthy, drug-free volunteers into ACD (85 mM sodium citrate, 111 mM glucose, 71.4 mM citric acid) containing PGI2 (1.25 mL ACD containing 0.2 μM PGI2 final; PGI2 from Sigma, St. Louis, Mo.). Platelet-rich plasma (PRP) was prepared by centrifugation at 160×g for 20 minutes at room temperature. Washed platelets were prepared by centrifuging PRP for 10 minutes at 730×g and resuspending the platelet pellet in CGS (13 mM sodium citrate, 30 mM glucose, 120 mM NaCl; 2 mL CGS/10 mL original blood volume). The wash in CGS was repeated a second time, the platelets were collected by centrifugation at 730 g for 10 minutes and resuspended at a concentration of 3×10^8 platelets/mL in Hepes-Tyrode's buffer (10 mM Hepes, 138 mM NaCl, 5.5 mM glucose, 2.9 mM KCl, 12 mM NaHCO3, pH 7.4). This platelet suspension was allowed to rest for 45 minutes at room temperature before use in calcium mobilization assays.
For 96-well plate calcium-mobilization experiments, equal volumes of 3×10^8 washed platelets/mL were incubated with equal volumes of Calcium-3 Assay Reagent A resuspended in 1× Hank's Balanced Salt Solution, pH 7.4, 20 mM Hepes buffer. The total reaction volume of 0.2 mL/well included 1.5×10^8/mL washed platelet/Calcium-3 Assay reagent A mix, 10 μM Eptifibatide (Millennium Pharmaceuticals Inc, Cambridge, Mass.) and serial dilutions (1:3) of test compounds in 0.75% DMSO. DMSO alone was added to 1 well of each 8 set to allow for a maximal calcium-mobilization reading. After a 20 minute preincubation at room temperature, the 96-well microplate reader was loaded into the FlexStation (Molecular Devices, Sunnyvale, Calif.). The FlexStation experimental conditions for measuring calcium mobilization were set up using SOFTMax Pro. The settings used were as follows: Fluorescence parameters-assay mode: flex, excitation 485 nm, 525 nM with a cut-off of 515 nM; Parameters—PMT sensitivity-6, pipette height 230 μl, read time 2 minutes and 40 seconds, read intervals 2 seconds, temperature-23-25° C. After 18 seconds of baseline reading, calcium mobilization was initiated by the addition of Convulxin to a final concentration of 125 ng/mL. Inhibition of calcium mobilization was calculated as the maximum response observed in the presence of inhibitor, compared to that in the absence of inhibitor. IC50s were then derived by non-linear regression analysis.

[2] = test system: IL-4 induced STAT-6 phosphorylation (JAK1/JAK3) in Ramos B-cells; assay: JAK3/STAT6 cellular assay: IL-4 induced STAT-6 phosphorylation, intracellular flow cytometry; settings: Homo sapiens, Ramos B-cells pre-treated 1 hour, IL-4 10 minutes
Description: Similar types of assays can be used to assess JAK kinase inhibitory activity and to determine the degree of selectivity of the particular compound as compared to Syk kinase. One means of assaying for such inhibition is detection of the effect of the compounds of the present invention on the upregulation of downstream gene products. In the Ramos/IL4 assay, B-cells are stimulated with the cytokine Interleukin-4 (IL-4) leading to the activation of the JAK/Stat pathway through phosphorylation of the JAK family kinases, JAK1 and JAK3, which in turn phosphorylate and activate the transcription factor Stat-6. […] To study the effect of inhibitors (e.g., the 2,4-substituted pyrimindinediamine compounds described herein) on the JAK1 and JAK3 kinases, human Ramos B-cells are stimulated with human IL-4. 10′ post-stimulation, cells are subjected to intracellular flow cytometry to measure the extent of STAT-6 phosphorylation. 20 to 24 hours post-stimulation, cells are stained for upregulation of CD23 and analyzed using flow cytometry.
Stimulation of Ramos B-cells by IL-4 leads to signaling through JAK1/JAK3 resulting in phosphorylation of STAT6 (signal transducers and activators of transcription). The effect of compounds on inhibition of JAK3 and/or JAK1 can be assessed by measuring the amount of phosphorylated STAT6. This may be performed by Western blotting and/or intracellular flow cytometry using a specific phospho-STAT6 antibody. Data describing compound inhibition of IL-4 induced STAT-6 phosphorylation (measured by intracellular flow cytometry) for Compound 1-1 (Example 1) is presented in the following table.
For the data in the above Table, Ramos B-cells were pre-treated for 1 hour with increasing concentrations of Compound 1-1, as indicated prior to addition of IL-4. Cells were incubated with IL-4 for 10 minutes, and then subjected to intracellular flow cytometry to measure the percent inhibition of IL-4 induced Stat-6, as shown.

SMILES | IC50 [1] [µM] | IC50 (human washed platelets) [nM] | also measured
CC(=O)N1CCN(c2ccc(Nc3nc(Nc4ccc5cn[nH]c5c4)c4cc[nH]c4n3)cc2)CC1 [Compound 1-1, 1-(4-(4-(4-(1H-indazol-6-ylamino)-7H-pyrrolo[2,3-d]pyrimidin-2-ylamino)phenyl)piperazin-1-yl)ethanone] | ≤ 50 | < 1000 | inhibition at 0.05 µM ([2]; 0.05 μM compound): 0%; inhibition at 0.125 µM ([2]; 0.125 μM compound): 6%; inhibition at 0.25 µM ([2]; 0.25 μM compound): 22%; inhibition at 0.5 µM ([2]; 0.5 μM compound): 33%; inhibition at 1 µM ([2]; 1 μM compound): 41%; inhibition at 2 µM ([2]; 2 μM compound): 49%
c1cc2c(Nc3ccc4cn[nH]c4c3)nc(Nc3ccc(N4CCNCC4)cc3)nc2[nH]1 [Compound 1-2, N4-(1H-indazol-6-yl)-N2-(4-(piperazin-1-yl)phenyl)-7H-pyrrolo[2,3-d]pyrimidine-2,4-diamine] | ≤ 50 | < 1000 | 
Cc1n[nH]c2cc(Nc3nc(Nc4ccc(N5CCNCC5)cc4)nc4[nH]ccc34)ccc12 [Compound 2-2, N4-(3-methyl-1H-indazol-6-yl)-N2-(4-(piperazin-1-yl)phenyl)-7H-pyrrolo[2,3-d]pyrimidine-2,4-diamine] | ≤ 50 | < 1000 | 
CC1(C)Oc2ccc(Nc3nc(Nc4ccc5c(c4)NC(=O)C(C)(C)O5)c4cc[nH]c4n3)cc2NC1=O [Compound 3-1] |  | < 1000 | 
c1cc2c(Nc3ccc4cn[nH]c4c3)nc(Nc3ccc4cn[nH]c4c3)nc2[nH]1 [Compound 4-1, N2,N4-di(1H-indazol-6-yl)-7H-pyrrolo[2,3-d]pyrimidine-2,4-diamine] |  | < 1000 | 
CS(=O)(=O)N1CCN(c2ccc(Nc3nc(Nc4ccc5cn[nH]c5c4)c4cc[nH]c4n3)cc2)CC1 [Compound 8-1, N4-(1H-indazol-6-yl)-N2-(4-(4-(methylsulfonyl)piperazin-1-yl)phenyl)-7H-pyrrolo[2,3-d]pyrimidine-2,4-diamine] | ≤ 50 | < 1000 | 
CS(=O)(=O)N1CCN(c2ccc(Nc3nc(Nc4ccc5cnn(S(C)(=O)=O)c5c4)c4cc[nH]c4n3)cc2)CC1 [Compound 8-2, N4-(1-(methylsulfonyl)-1H-indazol-6-yl)-N2-(4-(4-(methylsulfonyl)piperazin-1-yl)phenyl)-7H-pyrrolo[2,3-d]pyrimidine-2,4-diamine] | ≤ 50 | < 1000 | 
CS(=O)(=O)c1ccc(Nc2nc(Nc3ccc4cn[nH]c4c3)c3cc[nH]c3n2)cc1 [Compound 9-1, N4-(1H-indazol-6-yl)-N2-(4-(methylsulfonyl)phenyl)-7H-pyrrolo[2,3-d]pyrimidine-2,4-diamine] | ≤ 50 | < 1000 | 
CC1(C)Oc2ccc(Nc3nc(Nc4ccc5cn[nH]c5c4)nc4[nH]ccc34)cc2NC1=O [Compound 16-1, 6-(2-(1H-indazol-6-ylamino)-7H-pyrrolo[2,3-d]pyrimidin-4-ylamino)-2,2-dimethyl-2H-benzo[b][1,4]oxazin-3(4H)-one] |  | < 1000 | 
Cn1ncc2ccc(Nc3nc(Nc4ccc(N5CCNCC5)cc4)nc4[nH]ccc34)cc21 [Compound 22-1, N4-(1-methyl-1H-indazol-6-yl)-N2-(4-(piperazin-1-yl)phenyl)-7H-pyrrolo[2,3-d]pyrimidine-2,4-diamine] | ≤ 50 |  | 
CC(=O)N1CCN(c2ccc(Nc3nc(Nc4ccc5cnn(C)c5c4)c4cc[nH]c4n3)cc2)CC1 [Compound 22-2, 1-(4-(4-(4-(1-methyl-1H-indazol-6-ylamino)-7H-pyrrolo[2,3-d]pyrimidin-2-ylamino)phenyl)piperazin-1-yl)ethanone] | ≤ 50 |  | 
Cn1ncc2cc(Nc3nc(Nc4ccc(C(N)=O)cc4)nc4[nH]ccc34)ccc21 [Compound 25-1, 4-(4-(1-methyl-1H-indazol-5-ylamino)-7H-pyrrolo[2,3-d]pyrimidin-2-ylamino)benzamide] | ≤ 50 |  | 
